# Reference: patent publication US10246496B2, “Potassium channel blockers and use thereof in the treatment of autoimmune diseases” (MONASH UNIVERSITY, priority 2014, dated 2019)
# Columns and labels:
# mKv1.3 = target: T1, mKv1.3 (Mus musculus, UniProt P16390); test: Whole-cell patch clamp electrophysiology, Kv1.3 channel currents; format: cell-based
# T1 construct: expressed in transfected cells
# Text: Data are presented as mean±s.e.m.
# Electrophysiological analysis—Cells were studied using the whole-cell configuration of a standard patch-clamp technique at RT. The bath solution contained (in mM): 160 NaCl, 4.5 KCl, 2 CaCl2, 1 MgCl2, 10 HEPES, pH 7.2, 300 mOsm. […] Kv currents were elicited by repeated 200 ms depolarising pulses from a holding potential of −80 mV to 40 mV, applied every 30 seconds. The Port-a-Patch patch clamp system (Nanion Technologies GmbH, Munich, Germany) and NPC-1 chips with 2-3.5 MΩ resistance were also utilised in conjunction. IC50 values of Kv blockers were calculated by fitting the Hill equation to the reduction of peak current measured at 40 mV.
# Thus, both analogues have reduced affinity to K^+ channels and show a relatively low level of selectivity for Kv1.3 over Kv1.1. The implication is that neither Ser-3 nor Glu-3 was able to greatly discriminate between Pro377 in Kv1.3 and the corresponding Ala in Kv1.1.
# Kv1.3 = Kv1.3 (Mus musculus, UniProt P16390); conditions: literature values (Kalman 1998; Pennington 2009); spread = s.e.m.; read-out: Binding affinities (IC50) Kv1.3; cited from earlier work
# Kv1.3, sequence (P16390 whole entry): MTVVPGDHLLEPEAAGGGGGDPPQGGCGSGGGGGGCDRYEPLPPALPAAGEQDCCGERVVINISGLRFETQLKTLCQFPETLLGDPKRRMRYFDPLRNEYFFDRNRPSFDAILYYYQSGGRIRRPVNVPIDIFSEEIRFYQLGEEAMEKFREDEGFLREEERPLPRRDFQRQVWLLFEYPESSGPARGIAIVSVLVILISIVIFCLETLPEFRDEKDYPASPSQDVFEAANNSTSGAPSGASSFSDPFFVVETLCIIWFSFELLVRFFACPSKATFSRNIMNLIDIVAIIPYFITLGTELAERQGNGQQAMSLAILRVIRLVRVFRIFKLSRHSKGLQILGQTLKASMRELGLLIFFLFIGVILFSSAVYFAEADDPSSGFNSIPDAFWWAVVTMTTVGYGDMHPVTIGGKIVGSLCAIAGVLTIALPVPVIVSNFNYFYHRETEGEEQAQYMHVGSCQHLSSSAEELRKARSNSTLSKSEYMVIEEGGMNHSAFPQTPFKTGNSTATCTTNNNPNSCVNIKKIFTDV
# T1 sequence (P16390 whole entry): as above
Compound,IC50 (mKv1.3) [nM],higher affinity for Kv1.3 as compared to [ESSS]ShK (mKv1.3; relative to [ESSS]ShK) [fold],higher affinity for Kv1.3 than ShK-192 (mKv1.3; relative to ShK-192) [fold],IC50 (Kv1.3) [nM]
CC[C@H](C)[C@@H]1NC(=O)[C@@H](NC(=O)[C@H](CO)NC(=O)[C@H](CCCNC(=N)N)NC(=O)[C@H](CO)NC(=O)[C@H](CO)NC(=O)[C@H](CCC(=O)O)NC(=O)[C@@H](N)CCC(=O)O)CSSC[C@@H](C(N)=O)NC(=O)[C@H]([C@@H](C)O)NC(=O)CNC(=O)[C@@H]2CSSC[C@@H]3NC(=O)[C@H](CCC(N)=O)NC(=O)[C@H](Cc4ccccc4)NC(=O)[C@H](C)NC(=O)[C@H]([C@@H](C)O)NC(=O)[C@H](CSSC[C@H](NC(=O)[C@H](Cc4ccccc4)NC(=O)[C@H](CO)NC(=O)[C@H](CC(C)C)NC(=O)[C@H](CCCNC(=N)N)NC(=O)[C@H](Cc4ccc(O)cc4)NC(=O)[C@H](CCCCN)NC(=O)[C@H](CCSC)NC(=O)[C@H](CO)NC(=O)[C@H](Cc4c[nH]cn4)NC(=O)[C@H](CCCCN)NC3=O)C(=O)N[C@@H](CCCNC(=N)N)C(=O)N[C@@H](CCCCN)C(=O)N[C@@H]([C@@H](C)O)C(=O)N2)NC(=O)[C@H](CCCNC(=N)N)NC(=O)[C@H](CO)NC(=O)[C@H](CCCCN)NC(=O)[C@@H]2CCCN2C(=O)[C@H]([C@@H](C)CC)NC(=O)[C@H]([C@@H](C)O)NC(=O)[C@H](CC(=O)O)NC1=O [[EESS]ShK],0.404 ± 0.058,1.6,–,–
CC[C@H](C)[C@@H]1NC(=O)[C@@H](NC(=O)[C@H](CO)NC(=O)[C@H](CCCNC(=N)N)NC(=O)[C@H](CO)NC(=O)[C@H](CO)NC(=O)[C@H](Cc2c[nH]c3ccccc23)NC(=O)[C@@H](N)CCC(=O)O)CSSC[C@@H](C(=O)O)NC(=O)[C@H]([C@@H](C)O)NC(=O)CNC(=O)[C@@H]2CSSC[C@@H]3NC(=O)[C@H](CCC(N)=O)NC(=O)[C@H](Cc4ccccc4)NC(=O)[C@H](C)NC(=O)[C@H]([C@@H](C)O)NC(=O)[C@H](CSSC[C@H](NC(=O)[C@H](Cc4ccccc4)NC(=O)[C@H](CO)NC(=O)[C@H](CC(C)C)NC(=O)[C@H](CCCNC(=N)N)NC(=O)[C@H](Cc4ccc(O)cc4)NC(=O)[C@H](CCCCN)NC(=O)[C@H](CCSC)NC(=O)[C@H](CO)NC(=O)[C@H](Cc4c[nH]cn4)NC(=O)[C@H](CCCCN)NC3=O)C(=O)N[C@@H](CCCNC(=N)N)C(=O)N[C@@H](CCCCN)C(=O)N[C@@H]([C@@H](C)O)C(=O)N2)NC(=O)[C@H](CCCNC(=N)N)NC(=O)[C@H](CO)NC(=O)[C@H](CCCCN)NC(=O)[C@@H]2CCCN2C(=O)[C@H]([C@@H](C)CC)NC(=O)[C@H]([C@@H](C)O)NC(=O)[C@H](CC(=O)O)NC1=O [[EWSS]ShK],0.033 ± 0.007,–,4,–
RSCIDTIPKSRCTAFQCKHSMKYRLSFCRKTCGTC [ShK],–,–,–,0.011
